Experimental data published in patent US7407982B2, “Oligo or polyalkylene glycol-coupled thrombin inhibitors” (HaemoSys GmbH, priority 2001, dated 2008).
Like-named read-outs stand apart in the source and are kept apart here.

Experiments:
urokinase = urokinase (Homo sapiens, UniProt P00749); assay: Inhibiting constants with respect to urokinase; type: biochemical; settings: Example 8a table
Description: (§1) For this reason, two selected representatives of the inhibitors without PEG described in Tables 1 and 2 and one PEG-coupled inhibitor were examined with respect to their inhibiting effect on these enzymes.
(§2) Inhibiting constants of selected inhibitors with respect to the enzymes thrombin, plasmin, urokinase and tPA (values given in nM).

human α-thrombin = target: T1, human α-thrombin (Homo sapiens, UniProt P00734); assay: Determination of Ki for thrombin inhibition (chromogenic or fluorogenic substrate, Dixon); type: biochemical; settings: for KiTrypsin/KiThrombin: Example 8, selectivity quotient
T1 construct: 50 μl human α-thrombin (Kordia); purchased Kordia
Experimental: The Ki values are the average values of at least three calculations.
For determining the thrombin inhibiting effect of all reversibly binding inhibitors and inhibitor conjugates with inhibiting constants smaller than 1 nM, a fluorescence spectrometer (LS50B from the company Perkin Elmer) was used. […] The Ki values are the average values of at least three calculations.

trypsin = target: T2, trypsin (Bos taurus, UniProt P00760); assay: Ki values for trypsin, determined analogously; type: biochemical
T2 sequence (P00760 24-246): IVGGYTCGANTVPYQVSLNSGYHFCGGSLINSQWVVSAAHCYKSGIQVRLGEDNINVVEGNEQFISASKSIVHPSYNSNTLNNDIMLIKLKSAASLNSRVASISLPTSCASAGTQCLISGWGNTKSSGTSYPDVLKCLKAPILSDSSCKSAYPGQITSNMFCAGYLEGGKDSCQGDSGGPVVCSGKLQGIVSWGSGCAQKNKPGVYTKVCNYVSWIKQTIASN
Experimental: The Ki values for trypsin were determined analogously.
For optimizing the inhibitor conjugates, in particular of the following Examples 1 and 2, suitable groups R1 were sought which allow as strong a thrombin inhibition as possible. For examining the selectivity of the compounds, the inhibiting constants for trypsin were determined as well. The higher the quotient [KiTrypsin/KiThrombin], the more selectively the compound functions as a thrombin inhibitor. In order to facilitate the synthesis, this optimization was first carried out without coupling a polyalkylene glycol group to inhibitor molecules of formula (II) as listed in Table I. These compounds, which are active as thrombin inhibitors themselves, can be used as synthetic intermediates for the inhibitor conjugates of formula (I). As a central component, a glycyl-prolyl-dipeptide was consistently incorporated into the inhibitors.

tPA = tPA (Homo sapiens, UniProt P00750); assay: Inhibiting constants with respect to tPA; type: biochemical; settings: Example 8a table
Sequence of tPA (P00750 36-562, species assumed): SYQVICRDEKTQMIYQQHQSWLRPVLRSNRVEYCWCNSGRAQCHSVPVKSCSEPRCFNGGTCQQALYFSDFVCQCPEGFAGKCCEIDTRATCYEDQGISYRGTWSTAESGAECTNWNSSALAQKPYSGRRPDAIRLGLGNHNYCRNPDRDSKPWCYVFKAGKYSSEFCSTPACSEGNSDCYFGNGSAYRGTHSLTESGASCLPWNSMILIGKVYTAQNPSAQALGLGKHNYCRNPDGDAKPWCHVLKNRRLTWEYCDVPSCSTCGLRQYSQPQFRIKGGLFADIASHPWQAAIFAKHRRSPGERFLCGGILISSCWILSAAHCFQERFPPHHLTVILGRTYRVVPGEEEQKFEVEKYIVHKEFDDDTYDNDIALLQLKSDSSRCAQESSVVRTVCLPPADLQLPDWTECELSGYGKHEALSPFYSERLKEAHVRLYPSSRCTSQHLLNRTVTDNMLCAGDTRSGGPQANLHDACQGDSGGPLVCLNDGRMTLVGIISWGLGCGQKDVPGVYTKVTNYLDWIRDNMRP
Description: as §1, §2

plasmin = plasmin (Homo sapiens, UniProt P00747); assay: Inhibiting constants with respect to plasmin; type: biochemical; settings: Example 8a table
Sequence of plasmin (P00747 581-810 limits assumed, species assumed): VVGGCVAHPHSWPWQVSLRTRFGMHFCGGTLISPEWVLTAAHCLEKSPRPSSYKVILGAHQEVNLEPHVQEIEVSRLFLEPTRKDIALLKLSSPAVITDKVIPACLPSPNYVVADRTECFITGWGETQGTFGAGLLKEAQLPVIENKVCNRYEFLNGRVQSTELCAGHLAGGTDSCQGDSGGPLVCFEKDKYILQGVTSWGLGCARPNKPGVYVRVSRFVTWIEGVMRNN
Sequence of plasmin (P00747 97-580 partner limits assumed, species assumed): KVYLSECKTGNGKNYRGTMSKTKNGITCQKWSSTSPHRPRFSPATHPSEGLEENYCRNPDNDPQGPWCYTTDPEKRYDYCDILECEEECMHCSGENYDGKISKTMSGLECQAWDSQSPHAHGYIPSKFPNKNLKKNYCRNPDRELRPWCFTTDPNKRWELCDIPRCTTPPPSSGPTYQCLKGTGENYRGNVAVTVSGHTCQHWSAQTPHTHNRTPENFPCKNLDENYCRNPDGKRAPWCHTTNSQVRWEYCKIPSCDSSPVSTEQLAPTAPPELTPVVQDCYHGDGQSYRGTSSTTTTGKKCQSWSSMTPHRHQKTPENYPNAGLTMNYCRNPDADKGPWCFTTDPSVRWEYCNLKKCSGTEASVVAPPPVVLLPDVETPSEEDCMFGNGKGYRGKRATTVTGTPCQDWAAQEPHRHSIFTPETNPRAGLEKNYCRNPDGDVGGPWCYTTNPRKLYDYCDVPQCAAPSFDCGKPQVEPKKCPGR
Description: as §1, §2

thrombin [1] = target: T3, thrombin (Homo sapiens, UniProt P00734); settings: taken from the literature, cited from earlier work
thrombin [2] = target: T3, thrombin; assay: Kinetic constants of chloromethyl ketone inhibitors (method of Stein and Trainor); type: biochemical; settings: chloromethyl ketone inhibitor; for Ki: read-out: Kii
[3] = Elimination of the inhibitor conjugates in rats (blood level, urine recovery, clotting test); type: in vivo; settings: female, Wistar, rat; for half-life: blood
Experimental: Preliminary remarks: Female Wistar rats with a body weight between 150 to 250 g were used for the experiments. The animals were kept under conventional conditions and were provided with standard food and water ad libitum. Anaesthetization was carried out with 1.5 g ethylurethane per kg of body weight. Then the right and left jugular veins were prepared and catheters were inserted so that blood could be drawn at different points of time. The urine was collected throughout the entire test period and the inhibitor concentration was determined by means of a clotting test.

[4] = Example 8, read-out: KiThrombin
[5] = Table I, formula (II) compounds
[6] = Table 2, formula (III) compounds

4-methoxy-benzenesulfonyl-Asn(PEG2000-OMe)-Pro-4-amidinobenzylamide
Ki (urokinase): 157000 nM | KiTrypsin/KiThrombin (human α-thrombin): 174 | Ki (human α-thrombin; [4]): 0.53 nM | Ki (trypsin; Example 8, read-out: KiTrypsin): 92.5 nM | Ki (tPA): 599000 nM | Ki (plasmin): 33500 nM

COc1ccc(S(=O)(=O)NCC(=O)N2CCC[C@H]2C(=O)NCc2ccc(C(=N)N)cc2)cc1 [1c]
Ki (urokinase): 225000 nM | Ki Trypsin/Ki Thrombin (human α-thrombin; Table 2, selectivity quotient): 23.4 | Ki (human α-thrombin; [5]): 0.97 nM | Ki Trypsin/Ki Thrombin (human α-thrombin; Table I, selectivity quotient): 23.4 | Ki (tPA): 630 nM | Ki (plasmin): 5800 nM

NC(N)=NCCC[C@H](NC(=O)[C@@H]1CCCN1C(=O)[C@H](N)Cc1ccccc1)C(=O)CCl [PPACK, D-Phe-Pro-Arg-CH2—Cl]
Kinact/Ki (thrombin [1]): 4.4e+06 M⁻¹ s⁻¹ | kinact (thrombin [1]): 0.11 s⁻¹ | Ki (thrombin [1]; read-out: Kii): 25 nM

N=C(N)NCCC[C@H](NC(=O)[C@@H]1CCCN1C(=O)[C@@H](CC1CCCCC1)NCC(=O)O)C(=O)CCl.O=C(O)C(F)(F)F.O=C(O)C(F)(F)F [analogous non-PEG-coupled compound, H-d-N(CH2—COOH)Cha-Pro-Arg-CH2—Cl×2 trifluoroacetic acid, reference compound]
Kinact/Ki (thrombin [2]): 2.1e+07 M⁻¹ s⁻¹ | kinact (thrombin [2]): 0.079 s⁻¹ | Ki (thrombin [2]): 3.8 nM

N=C(N)c1ccc(CNC(=O)[C@@H]2CCCN2C(=O)[C@H](CC(=O)OCc2ccccc2)NS(=O)(=O)c2ccc3ccccc3c2)cc1 [compound 36]
Ki (human α-thrombin; [6]): 1.3 nM | Ki Trypsin/Ki Thrombin (human α-thrombin; Table 2, selectivity quotient): 13.6 | Ki (trypsin; [6]): 17.6 nM

N=C(N)c1ccc(CNC(=O)[C@@H]2CCCN2C(=O)[C@H](CN)NS(=O)(=O)c2ccc3ccccc3c2)cc1 [compound 37]
Ki (human α-thrombin; [6]): 2.4 nM | Ki Trypsin/Ki Thrombin (human α-thrombin; Table 2, selectivity quotient): 4.3 | Ki (trypsin; [6]): 10.3 nM

N=C(N)c1ccc(CNC(=O)[C@@H]2CCCN2C(=O)[C@@H](CC(N)=O)NS(=O)(=O)c2ccc3ccccc3c2)cc1 [compound 43]
Ki (human α-thrombin; [6]): 52.5 nM | Ki Trypsin/Ki Thrombin (human α-thrombin; Table 2, selectivity quotient): 0.42 | Ki (trypsin; [6]): 22.4 nM

COc1ccc(S(=O)(=O)N[C@@H](CC(=O)NCc2ccc(C#N)cc2)C(=O)N2CCC[C@H]2C(=O)NCc2ccc(C(=N)N)cc2)cc1 [compound 44]
Ki (human α-thrombin; [6]): 0.045 nM | Ki Trypsin/Ki Thrombin (human α-thrombin; Table 2, selectivity quotient): 911 | Ki (trypsin; [6]): 41 nM

COc1ccc(S(=O)(=O)N[C@@H](CC(=O)NCc2ccc(CN)cc2)C(=O)N2CCC[C@H]2C(=O)NCc2ccc(C(=N)N)cc2)cc1 [compound 45]
Ki (human α-thrombin; [6]): 0.061 nM | Ki Trypsin/Ki Thrombin (human α-thrombin; Table 2, selectivity quotient): 639 | Ki (trypsin; [6]): 39 nM

COc1ccc(S(=O)(=O)N[C@@H](CC(=O)NCc2ccccc2)C(=O)N2CCC[C@H]2C(=O)NCc2ccc(C(=N)N)cc2)cc1 [compound 47]
Ki (human α-thrombin; [6]): 0.065 nM | Ki Trypsin/Ki Thrombin (human α-thrombin; Table 2, selectivity quotient): 600 | Ki (trypsin; [6]): 39 nM

COc1ccc(S(=O)(=O)N[C@@H](CC(=O)NCc2cccc(CN)c2)C(=O)N2CCC[C@H]2C(=O)NCc2ccc(C(=N)N)cc2)cc1 [compound 48]
Ki (human α-thrombin; [6]): 0.08 nM | Ki Trypsin/Ki Thrombin (human α-thrombin; Table 2, selectivity quotient): 512 | Ki (trypsin; [6]): 41 nM

COc1ccc(S(=O)(=O)N[C@@H](CC(=O)OCc2ccccc2)C(=O)N2CCC[C@H]2C(=O)NCc2ccc(C(=N)N)cc2)cc1 [compound 49]
Ki (human α-thrombin; [6]): 0.21 nM | Ki Trypsin/Ki Thrombin (human α-thrombin; Table 2, selectivity quotient): 181 | Ki (trypsin; [6]): 38 nM

COc1ccc(S(=O)(=O)NC(CC(N)=O)C(=O)N2CCCC2C(=O)NCc2ccc(C(=N)N)cc2)cc1 (centres unmarked) [compound 50]
Ki (urokinase): 52000 nM | Ki (human α-thrombin; [6]): 0.36 nM | Ki Trypsin/Ki Thrombin (human α-thrombin; Table 2, selectivity quotient): 147 | Ki (tPA): 47000 nM | Ki (plasmin): 17500 nM

COc1ccc(S(=O)(=O)N[C@@H](CO)C(=O)N2CCC[C@H]2C(=O)NCc2ccc(C(=N)N)cc2)cc1 [compound 51]
Ki (human α-thrombin; [6]): 0.255 nM | Ki Trypsin/Ki Thrombin (human α-thrombin; Table 2, selectivity quotient): 67 | Ki (trypsin; [6]): 17 nM

COC(=O)C[C@H](NS(=O)(=O)c1ccc(OC)cc1)C(=O)N1CCC[C@H]1C(=O)NCc1ccc(C(=N)N)cc1 [compound 52]
Ki (human α-thrombin; [6]): 0.68 nM | Ki Trypsin/Ki Thrombin (human α-thrombin; Table 2, selectivity quotient): 31 | Ki (trypsin; [6]): 21.4 nM

N=C(N)N1CCC(CNC(=O)[C@@H]2CCCN2C(=O)[C@@H](CC2CCCCC2)NCC(=O)O)CC1 [formula (IV)]
half-life ([3]; intravenous administration of 10 mg/kg): ~0.275 h | dose excreted ([3]; urine, sc, rats, subcutaneous administration, read-out: cumulative percentage recovery in the urine): ~58%

N=C(N)N1CCC(CNC(=O)[C@@H]2CCCN2C(=O)[C@@H](CC2CCCCC2)NCC(=O)NCC2COCCOCCOCCOCCO2)CC1 (some centres unmarked) [inhibitor structure (VI)]
half-life ([3]; sc, rats, subcutaneous administration of 5 mg/kg): ~5.83 h

D-N(CH2—CO—NH-PEG5000-OMe)Cha-Pro-4-(amidomethyl)-N(amidino)piperidine×2 HCl
KiTrypsin/KiThrombin (human α-thrombin): 100 | Ki (human α-thrombin; [4]): 2.4 nM | Ki (human α-thrombin; [5]): 3.5 nM | Ki Trypsin/Ki Thrombin (human α-thrombin; Table I, selectivity quotient): 1.8 | Ki (trypsin; Example 8, read-out: KiTrypsin): 239 nM | Ki (trypsin; [5]): 6.2 nM

H-D-N(CH2—CO—NH-PEG5000-OMe)Cha-Pro-4-(amidino)benzylamide
KiTrypsin/KiThrombin (human α-thrombin): 3.5 | Ki (human α-thrombin; [4]): 0.97 nM | Ki (human α-thrombin; [5]): 1.9 nM | Ki Trypsin/Ki Thrombin (human α-thrombin; Table I, selectivity quotient): 1.6 | Ki (trypsin; Example 8, read-out: KiTrypsin): 3.4 nM | Ki (trypsin; [5]): 3 nM

H-d-N(CH2—CONH-PEG2000-OMe)Cha-Pro-Arg-CH2—Cl×2 trifluoroacetic acid
Kinact/Ki (thrombin [2]): 7.5e+06 M⁻¹ s⁻¹ | kinact (thrombin [2]): 0.08 s⁻¹ | Ki (thrombin [2]): 10.6 nM | Ki (human α-thrombin; [5]): 3.8 nM | Ki Trypsin/Ki Thrombin (human α-thrombin; Table I, selectivity quotient): 0.97 | Ki (trypsin; [5]): 3.7 nM
